Laboratory results reported in patent US5773437A, “Alkylenediamine derivatives” (Nippon Chemiphar Co., Ltd., priority 1994, dated 1998).
Where a name gives a salt, the structure may show the parent alone.

Key:
[1] = test system: bladder (urinating contraction); assay: Period of inhibition of rhythmic bladder contraction (urinating contraction) in urethane-anesthetized rats; format: in vivo, rat (Wistar strain, male); conditions: rat, saline control 1.6 min
Method: The compound of the invention was evaluated in urinating contraction of bladder by the following test method.
A male rat (Wistar strain) was fixed on his back under urethane anesthesia (1.5 g/kg, S.C.). A tracheal cannula was inserted into the rat to respire easily, and its hypogastrium was subjected to median dissection for exposing its bladder. A small opening was made on the top of the bladder to remove urine. To the bladder was inserted a polyethylene cannula. The bladder system was made to closed system by ligating urethra and ureter.
A physiological saline was injected into the bladder of rat at a rate of 0.05 mL/min. using a continuous injector so as to cause periodical urinating contraction. The intravesical pressure of the bladder was measured by means of a pressure transducer. The measured value was recorded on a pen-writing recorder. The compound to be tested was dissolved in a physiological saline and administered into the femoral vein using the polyethylene cannula.
The action for relieving urinating contraction was evaluated by measuring a period of time during which the rhythimic bladder contraction was inhibited (period of contraction inhibition).
The compounds tested were those obtained in the working examples.

[2] = Mouse acute toxicity LD50 (i.v.), Probit method; format: in vivo; conditions: calculated by Probit method; for LD50: in vivo, iv
Source text: The results seen in Table 4 clearly indicate that the compound of the invention is effective in relieving urinating contraction. Further, the toxicity of the compound is set forth in Table 4 in terms of LD50 (mg/kg) calculated by Probit method.

[3] = 6 mg/kg i.v., Hydrochloride, 6 mg/kg
[4] = 6 mg/kg i.v., Fumarate, 6 mg/kg

Compound | LD50 [2] | Period of Contraction Inhibition ([1]; 8 mg/kg i.v.) | other results
Cl.O=C1CN(C(CCN2CCOCC2)c2ccccc2)S(=O)(=O)c2ccccc21 (single isomer, unassigned; (+)) [Example 20[C]] [(+)-2-(3-Morpholino-1-phenylpropyl)-2H-1,2-benzothiazin-4(3H)-one 1,1-Dioxide Hydrochloride] | – | – | Period of Contraction Inhibition [1, 3]: 6.0 min; Mouse LD50 ([2]; Hydrochloride): 180 mg/kg
O=C(O)/C=C/C(=O)O.O=C1c2ccccc2CS(=O)(=O)N1C(CCN1CCOCC1)c1ccccc1 (single isomer, unassigned; (+)) [Example 24[C]] [(+)-3-(3-Morpholino-1-phenylpropyl)-1H-2,3-benzothiazin-4(3H)-one 2,2-Dioxide Fumarate] | – | – | Period of Contraction Inhibition [1, 4]: 0.7 min; Mouse LD50 ([2]; Fumarate): 167 mg/kg
Cl.O=C1CN(C(CCN2CCOCC2)c2ccccc2)S(=O)(=O)c2ccccc21 (single isomer, unassigned; (-)) [Example 20[B], (-)-2-(3-Morpholino-1-phenylpropyl)-2H-1,2-benzothiazin-4(3H)-one 1,1-Dioxide Hydrochloride] | 140 mg/kg | – | –
Cl.O=C1CN(C(CCN2CCOCC2)c2ccccc2)S(=O)(=O)c2ccccc21 (single isomer, unassigned; (-)) [Example 20[B]] [(-)-2-(3-Morpholino-1-phenylpropyl)-2H-1,2-benzothiazin-4(3H)-one 1,1-Dioxide Hydrochloride] | – | – | Period of Contraction Inhibition [1, 3]: 0.4 min
O=C(O)/C=C/C(=O)O.O=C1c2ccccc2CS(=O)(=O)N1C(CCN1CCOCC1)c1ccccc1 (single isomer, unassigned; (-)) [Example 24[B]] [(-)-3-(3-Morpholino-1-phenylpropyl)-1H-2,3-benzothiazin-4(3H)-one 2,2-Dioxide Fumarate] | – | – | Period of Contraction Inhibition [1, 4]: 8.5 min; Mouse LD50 ([2]; Fumarate): 32 mg/kg
Cl.O=C1CN(CCCN2CCC(Oc3ccccc3)CC2)S(=O)(=O)c2ccccc21 [Example 1, 2-[3-(4-Phenoxypiperidino)propyl]-2H-1,2-benzothiazin-4(3H)-one 1,1-dioxide Hydrochloride] | – | – | Period of Contraction Inhibition ([1]; 1 mg/kg i.v.): 2.8 min
Cl.O=C1CN(CCCN2CCC(OCc3ccccc3)CC2)S(=O)(=O)c2ccccc21 [Example 2, 2-[3-(4-Benzyloxypiperidino)propyl]-2H-1,2-benzothiazin-4(3H)-one 1,1-Dioxide Hydrochloride] | – | 16 min | –
O=C(O)/C=C/C(=O)O.O=C1c2ccccc2CS(=O)(=O)N1CCCN1CCC(Cc2ccccc2)CC1 [Example 3, 3-[3-(4-Benzylpiperidino)propyl]-1H-2,3-benzothiazin-4(3H)-one 2,2-Dioxide Fumarate] | – | 2 min | –
Cl.O=C1CN(CCCN2CCC(Cc3ccccc3)CC2)S(=O)(=O)c2ccccc21 [Example 10, 2-[3-(4-Benzylpiperidino)propyl)-2H-1,2-benzothiazin-4(3H)-one 1,1-Dioxide Hydrochloride] | 3 mg/kg | 14.5 min | –
CCCCN(CCCN1CC(=O)c2ccccc2S1(=O)=O)Cc1ccccc1.Cl [Example 11, 2-[3-(N-Benzyl-N-butylamino)propyl]-2H-1,2-benzothiazin-4(3H)-one 1,1-Dioxide Hydrochloride] | 37 mg/kg | 3.9 min | –
Cl.O=C1CN(CCCN2CCN(C(c3ccccc3)c3ccccc3)CC2)S(=O)(=O)c2ccccc21 [Example 12, 2-[3-(4-Diphenylmethyl-1-piperazinyl)propyl]-2H-1,2-benzothiazin-4(3H)-one 1,1-Dioxide Hydrochloride] | – | 2.5 min | –
Cl.O=C1CN(CCN2CCC(Cc3ccccc3)CC2)S(=O)(=O)c2ccccc21 [Example 13, 2-[2-(4-Benzylpiperidino)ethyl]-2H-1,2-benzothiazin-4(3H)-one 1,1-Dioxide Hydrochloride] | – | 18 min | –
Cl.O=C1CN(CCCN2CCN(Cc3ccccc3)CC2)S(=O)(=O)c2ccccc21 [Example 14, 2-[3-(4-Benzyl-1-piperazinyl)propyl]-2H-1,2-benzothiazin-4(3H)-one 1,1-Dioxide Hydrochloride] | 17 mg/kg | 12.7 min | –
O=C1CN(CCCN2CCc3ccccc3C2)S(=O)(=O)c2ccccc21 [Example 15, 2-[3-[2-(1,2,3,4-Tetrahydroisoquinolyl)]propyl]-2H-1,2-benzothiazin-4(3H)-one 1,1-Dioxide Hydrochloride] | 23 mg/kg | 4.7 min | –
Cl.O=C1CN(C(CCN2CCOCC2)c2ccccc2)S(=O)(=O)c2ccccc21 (stereo not drawn) [Example 20[A], 2-(3-Morpholino-1-phenylpropyl)-2H-1,2-benzothiazin-4(3H)-one 1,1-Dioxide Hydrochloride] | > 120 mg/kg | – | Period of Contraction Inhibition ([1]; 12 mg/kg i.v.): 9.7 min
Cl.O=C1CN(C(CCN2CCSCC2)c2ccccc2)S(=O)(=O)c2ccccc21 (stereo not drawn) [Example 21, 2-(1-Phenyl-3-thiomorpholinopropyl)-2H-1,2-benzothiazin-4(3H)-one 1,1-Dioxide Hydrochloride] | > 100 mg/kg | – | Period of Contraction Inhibition ([1]; 10 mg/kg i.v.): 7.0 min
O=C(O)/C=C/C(=O)O.O=C1c2ccccc2CS(=O)(=O)N1C(CCN1CCOCC1)c1ccccc1 (stereo not drawn) [Example 24[A], 3-(3-Morpholino-1-phenylpropyl)-1H-2,3-benzothiazin-4(3H)-one 2,2-Dioxide Fumarate] | 62 mg/kg | – | Period of Contraction Inhibition ([1]; 12 mg/kg i.v.): 5.6 min
CS(=O)(=O)O.O=C1c2ccccc2CS(=O)(=O)N1C(CCN1CCSCC1)c1ccccc1 (stereo not drawn) [Example 26, 3-(1-Phenyl-3-thiomorpholinopropyl)-1H-2,3-benzothiazin-4(3H)-one 2,2-Dioxide Mesylate] | 37 mg/kg | – | Period of Contraction Inhibition ([1]; 4 mg/kg i.v.): 7.3 min
N#CC1(c2ccccc2)CCN(CCCN2CC(=O)c3ccccc3S2(=O)=O)CC1.O=C(O)/C=C/C(=O)O [Example 32, 2-[3-(4-Cyano-4-phenylpiperidino)propyl]-2H-1,2-benzothiazin-4(3H)-one 1,1-Dioxide Fumarate] | – | 6 min | –
N#CC1(c2ccccc2)CCN(CCC(c2ccccc2)N2CC(=O)c3ccccc3S2(=O)=O)CC1.O=C(O)/C=C/C(=O)O (stereo not drawn) [Example 34, 2-[3-(4-Cyano-4-phenylpiperidino)-1-phenylpropyl]-2H-1,2-benzothiazin-4(3H)-one 1,1-Dioxide Fumarate] | – | 3 min | –
O=C1c2ccccc2S(=O)(=O)N1C(CCN1CCSCC1)c1ccccc1 (stereo not drawn) [Example II, 2-(1-Phenyl-3-thiomorpholino)propyl-1,2-benzisothiazol-3(2H)-one 1,1-Dioxide Fumarate] | 47 mg/kg | – | Period of Contraction Inhibition ([1]; 5 mg/kg i.v.): 3.8 min
O=C1c2ccccc2S(=O)(=O)N1C(CCN1CCOCC1)c1ccccc1 (stereo not drawn) [Example IX, 2-(3-Morpholino-1-pheny)propyl-1,2-benzisothiazol-3(2H)-one 1,1-Dioxide Fumarate] | 48 mg/kg | – | Period of Contraction Inhibition ([1]; 5 mg/kg i.v.): 10.7 min
CC(=O)N1CCN(CCC(c2ccccc2)N2C(=O)c3ccccc3S2(=O)=O)CC1 (stereo not drawn) [Example XI, 2-[3-(4-Acetyl-1-piperazinyl)-1-pheny]propyl-1,2-benzisothiazol-3(2H)-one 1,1-Dioxide Fumarate] | 170 mg/kg | – | Period of Contraction Inhibition ([1]; 17 mg/kg i.v.): 6.0 min
O=C1c2ccccc2S(=O)(=O)N1C(CCN1CCN(c2ncccn2)CC1)c1ccccc1 (stereo not drawn) [Example XII, 2-[1-Phenyl-3-[4-(2-pyrimidinyl)-1-piperazinyl]propyl-1,2-benzisothiazol-3(2H)-one 1,1-Dioxide Hydrochloride] | > 200 mg/kg | – | Period of Contraction Inhibition ([1]; 20 mg/kg i.v.): 3.5 min
